Test results: patent EP0416248A2, “Use of vitamine B6 for reducing elevated serotonin levels” (priority 1989, dated 1991)
Read-outs that look alike come from different tables or passages of the source. Each block holds one compound with its values, some of them ahead of it.

Assays:
[1] = test system: vitamin B6 levels in human plasma and cells; assay: Applicant's investigations of enprofylline and vitamin B6 levels
[2] = target: T1, PL-kinase (Homo sapiens, UniProt O00764); assay: Enzyme kinetic studies of PL-kinase inhibition; type: biochemical
T1 sequence (O00764 1-312): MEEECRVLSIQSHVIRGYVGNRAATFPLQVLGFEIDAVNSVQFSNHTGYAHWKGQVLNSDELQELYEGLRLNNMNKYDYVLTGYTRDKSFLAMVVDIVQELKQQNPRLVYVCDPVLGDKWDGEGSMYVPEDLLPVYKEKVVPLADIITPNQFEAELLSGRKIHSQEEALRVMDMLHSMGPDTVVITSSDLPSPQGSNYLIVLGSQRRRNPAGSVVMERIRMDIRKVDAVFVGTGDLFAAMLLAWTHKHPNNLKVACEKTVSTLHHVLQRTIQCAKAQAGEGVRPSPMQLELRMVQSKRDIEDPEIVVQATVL

[3] = test system: glutamate pyruvate transaminase (GPT) in red blood cells; type: in vivo, human
Experimental: The inventor carried out clinical tests in human volunteers to investigate the effect of theophylline on glutamate pyruvate transaminase (GPT) in red blood cells, which plays an important biochemical role. […] When theophylline was administered there took place a dramatic drop in both PLP due to the inactivation of the kinase, and after approximately 28 days, also of RBC GPT levels as newly formed RBC (produced in the bone marrow under conditions of reduced PLP availability) begin to appear in the circulation.
As predicted, the body did indeed try to compensate for this by forming progressively more kinase. […] Thus the increased levels of kinase were unable to reverse the theophylline induced PLP deficiency and the concommittant GPT deficiency.

[4] = test system: serotonin; type: in vivo, humans
Experimental: Studies on humans: The study was approved by the University Human Ethics Committee. Seven apparently healthy, young male volunteers aged 23 ± 2.4 ( ± SD) years gave informed consent to participate in the study. Each participant received theophylline (slow release) at a dosage of approximately 5 mg/kg body weight/day for one week. Thereafter, the theophylline dosage was increased to maintain plasma theophylline levels of approx. 10 mg/liter for 15 weeks. During the last week of the study (16th week) the participants were supplemented with 10 mg of vitamin B6 (B6) as herein described per day.
Clin. Chem. 35: 43-47. Serotonin concentrations were subsequently determined by HPLC according to the method of Tsuchiya et al.)

[5] = test system: B6 dependent intracellular pathways; assay: Very low doses of PN in humans; type: in vivo; conditions: 0,02 mg/kg in humans

half-life (in vivo): 30 to 40 min
Compound: Cc1ncc(CO)c(C=O)c1O [PL, pyridoxal]

Compound: CCCn1c(=O)[nH]c(=O)c2[nH]cnc21 [enprofylline, 3-propylxanthine]
effect on vitamin B6 levels in human plasma and cells [1]: adverse effect

Compound: Cn1c(=O)c2[nH]cnc2n(C)c1=O [theophylline]
type of PL-kinase inhibition [2]: non-competitive
PLP ([3]; human, in vivo): dramatic drop
PLP content and GPT content ([3]; human, in vivo): remained depressed for as long as 100 days
Urinary serotonin excretion, Basal ([4]; 112 days of theophylline treatment, preceded by 1 week of vitamin B6 supplementation (10 mg/day), mean (SD)): 0.562 (0.127) umol/24 h
Urinary serotonin excretion after tryptophan loading ([4]; human, in vivo): the observed changes were not statistcially significant

half-life (plasma): 12 min
Compound: Cc1ncc(CO)c(CO)c1O [PN, pyridoxine]
extracellular PL and PLP levels [5]: without affecting extracellular PL and PLP levels materially
influence on B6 dependent intracellular pathways [5]: profound influence

Compound: Cc1ncc(CO)c(CO)c1O.Cl [vitamin B6]
PLP deficiency induced by the xanthine bronchodilator ([3]; low dosage supplementation with Vitamin B6): almost immediately reversed
urinary serotonin excretion ([4]; one week of B6 supplementation (10 mg per day) during theophylline therapy): returned urinary serotonin excretion to pre-treatment levels
